The record followed here is US8785486B2, “Imidazo[1,2-A]pyridine derivatives and their use as positive allosteric modulators of mGluR2 receptors” (Janssen Pharmaceuticals, Inc., priority 2007, dated 2014).

One data set deals with T1, human mGluR2 receptor (Homo sapiens, UniProt Q14416).
T1 construct: expressed in transfected cells; host or cells: CHO cells
In words: [35S]GTPγS binding assay (PAM assay) using membranes from cells transfected with the human mGluR2 receptor. Format: biochemical. As to conditions: membranes of CHO cells with human mGluR2, glutamate at predetermined EC25 concentration, averages of duplicate values of 11-concentration response curves; for EC50: read-out: GTPγS - hR2 PAM pEC50 (converted). As for the experimental part:
The [^35S]GTPγS binding assay is a functional membrane-based assay used to study G-protein coupled receptor (GPCR) function whereby incorporation of a non-hydrolysable form of GTP, [^35S]GTPγS (guanosine 5′-triphosphate, labelled with […] ^35S), is measured.
CHO-cells were cultured to pre-confluence and stimulated with 5 mM butyrate for 24 hours, prior to washing in PBS, and then collection by scraping in homogenisation buffer (50 mM Tris-HCl buffer, pH 7.4, 4° C.). Cell lysates were homogenized briefly (15 s) using an ultra-turrax homogenizer. The homogenate was centrifuged at 23 500×g for 10 minutes and the supernatant discarded. The pellet was resuspended in 5 mM Tris-HCl, pH 7.4 and centrifuged again (30 000×g, 20 min, 4° C.). The final pellet was resuspended in 50 mM HEPES, pH 7.4 and stored at −80° C. in appropriate aliquots before use. Protein concentration was determined by the Bradford method (Bio-Rad, USA) with bovine serum albumin as standard.
Measurement of mGluR2 positive allosteric modulatory activity of test compounds in membranes containing human mGluR2 was performed using frozen membranes that were thawed and briefly homogenised prior to pre-incubation in 96-well microplates (15 μg/assay well, 30 minutes, 30° C.) in assay buffer (50 mM HEPES pH 7.4, 100 mM NaCl, 3 mM MgCl2, 50 μM GDP, 10 μg/ml saponin,) with increasing concentrations of positive allosteric modulator (from 0.3 nM to 50 μM) and either a minimal pre-determined concentration of glutamate (PAM assay), or no added glutamate. […] After addition of [^35S]GTPγS (0.1 nM, f.c.) to achieve a total reaction volume of 200 μl, microplates were shaken briefly and further incubated to allow [^35S]GTPγS incorporation on activation (30 minutes, 30° C.). The reaction was stopped by rapid vacuum filtration over glass-fibre filter plates (Unifilter 96-well GF/B filter plates, Perkin-Elmer, Downers Grove, USA) microplate using a 96-well plate cell harvester (Filtermate, Perkin-Elmer, USA), and then by washing three times with 300 μl of ice-cold wash buffer (Na2PO4.2H2O 10 mM, NaH2PO4.H2O 10 mM, pH=7.4). Filters were then air-dried, and 40 μl of liquid scintillation cocktail (Microscint-O) was added to each well, and membrane-bound [^35S]GTPγS was measured in a 96-well scintillation plate reader (Top-Count, Perkin-Elmer, USA). Non-specific [^35S]GTPγS binding is determined in the presence of cold 10 μM GTP. Each curve was performed at least once using duplicate sample per data point and at 11 concentrations.
The concentration-response curves of representative compounds of the present invention in the presence of added EC25 of mGluR2 agonist glutamate to determine positive allosteric modulation (PAM), were generated using the Prism GraphPad software (Graph Pad Inc, San Diego, USA). The curves were fitted to a four-parameter logistic equation (Y=Bottom+(Top-Bottom)/(1+10^((Log EC50−X)*Hill Slope) allowing determination of EC50 values. The EC50 is the concentration of a compound that causes a half-maximal potentiation of the glutamate response. This is calculated by subtracting the maximal responses of glutamate in presence of a fully saturating concentration of a positive allosteric modulator from the response of glutamate in absence of a positive allosteric modulator. The concentration producing the half-maximal effect is then calculated as EC50
(GTPγS resists hydrolysis and so accumulates on activated G proteins.)

As usually defined, the melting point is the temperature, or range, at which the solid turns liquid.

T1 sequence (Q14416 19-872): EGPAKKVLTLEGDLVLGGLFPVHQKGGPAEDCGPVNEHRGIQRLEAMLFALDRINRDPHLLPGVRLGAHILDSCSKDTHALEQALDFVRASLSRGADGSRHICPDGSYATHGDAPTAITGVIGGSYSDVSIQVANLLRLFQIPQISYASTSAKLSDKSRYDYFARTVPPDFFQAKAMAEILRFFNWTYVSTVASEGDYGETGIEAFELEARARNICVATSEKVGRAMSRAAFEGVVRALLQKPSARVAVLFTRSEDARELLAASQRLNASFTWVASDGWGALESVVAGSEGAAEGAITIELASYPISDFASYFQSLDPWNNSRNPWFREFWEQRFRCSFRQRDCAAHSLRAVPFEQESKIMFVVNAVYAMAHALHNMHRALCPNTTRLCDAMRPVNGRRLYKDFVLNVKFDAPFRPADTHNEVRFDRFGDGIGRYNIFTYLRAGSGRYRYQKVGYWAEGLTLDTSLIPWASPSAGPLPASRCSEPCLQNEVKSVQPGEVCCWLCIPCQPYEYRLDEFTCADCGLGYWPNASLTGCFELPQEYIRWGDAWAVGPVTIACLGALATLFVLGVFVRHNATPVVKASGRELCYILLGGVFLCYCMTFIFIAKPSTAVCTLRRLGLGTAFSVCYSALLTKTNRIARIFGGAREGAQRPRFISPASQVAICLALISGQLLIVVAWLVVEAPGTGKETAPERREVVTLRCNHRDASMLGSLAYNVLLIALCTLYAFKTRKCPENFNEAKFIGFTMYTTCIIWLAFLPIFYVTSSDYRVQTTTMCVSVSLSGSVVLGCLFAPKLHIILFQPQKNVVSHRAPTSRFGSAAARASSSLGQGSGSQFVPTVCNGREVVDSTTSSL

Turning to `CC(C)(O)c1ccc(C2CCN(c3ccn4c(CC(F)(F)F)cnc4c3C#N)CC2)cc1` [Example 54], the melting point came out at 155.4 °C. Also, at human mGluR2 receptor, the EC50 is 240 nM.
In turn, `N#Cc1c(N2CCC(c3ccccc3)CC2)ccn2c(CCCC(F)(F)F)cnc12` [Example 28, 7-(4-Phenyl-piperidin-1-yl)-3-(4,4,4-trifluoro-butyl)-imidazo[1,2-a]pyridine-8-carbonitrile] returned a melting point of 128.5 °C. Also, the EC50 at human mGluR2 receptor was 132 nM.
Taken in the same sequence, the figures for `C[C@]1(O)CC[C@H](Nc2ccc(-c3ccn4c(CC(F)(F)F)cnc4c3C#N)cc2Cl)CC1` [Example 94] were 202.6 °C and 174 nM.
Taken in the same sequence, the figures for `N#Cc1c(N2CCc3c(oc4ccccc34)C2)ccn2c(CC(F)(F)F)cnc12` [Example 116] were 252.5 °C and 174 nM.
For the compound `CCCc1cnc2c(C#N)c(N3CCN(c4ccccc4)CC3)ccn12` [Example 15], the melting point was 148.2 °C. In addition, the “GTPγS - hR2 PAM pEC50” value on human mGluR2 receptor turned out to be 6.01.
Taken in the same sequence, the figures for `N#Cc1c(-c2ccc(NC3CCOCC3)c(Cl)c2)ccn2c(CC(F)(F)F)cnc12` [Example 92] were 230.7 °C and 6.15.
`N#Cc1c(-c2ccc(Sc3ccccc3)cc2)ccn2c(CC(F)(F)F)cnc12` [Example 71] came in with a melting point of 195.6 °C. Further, the EC50 at human mGluR2 receptor was 182 nM.
Taken in the same sequence, the figures for `N#Cc1c(N2CCC(c3ccc(F)cc3F)CC2)ccn2c(CC(F)(F)F)cnc12` [Example 33] were 186.5 °C and 61.7 nM.
Taken in the same sequence, the figures for `O[C@H]1CC[C@H](Nc2ccc(-c3ccn4c(CC(F)(F)F)cnc4c3Cl)cc2Cl)CC1` [Example 101, 4-{2-Chloro-4-[8-chloro-3-(2,2,2-trifluoro-ethyl)-imidazo[1,2-a]pyridin-7-yl]phenylamino}-cyclohexanol] were 183.1 °C and 155 nM.
Regarding `CC(C)(O)C1CCN(c2ccc(-c3ccn4c(CC(F)(F)F)cnc4c3C#N)cc2)CC1` [Example 112], the melting point turned out to be 174 °C. In addition, at human mGluR2 receptor, the EC50 is 676 nM.
`CCc1cnc2c(C#N)c(N3CCC(c4ccccc4)CC3)ccn12` [Example 12] showed a melting point of 150 °C. The “GTPγS - hR2 PAM pEC50” value at human mGluR2 receptor is 6.30.
`CCCc1cnc2c(C#N)c(N3CCC(O)(c4ccccc4)CC3)ccn12` [Example 8] gave a melting point of 201.1 °C. On human mGluR2 receptor, the EC50 was 316 nM.
Compound `N#Cc1c(-c2ccc(N[C@H]3CC[C@H](O)CC3)cc2)ccn2c(CC(F)(F)F)cnc12` [Example 91, 7-[4-(4-hydroxy-cyclohexylamino)-phenyl]-3-(2,2,2-trifluoro-ethyl)-imidazo[1,2-a]pyridine-8-carbonitrile] returned a melting point of 137.5 °C. The EC50 on human mGluR2 receptor was 1120 nM.
Compound `CCCc1cnc2c(C#N)c(N3CCC(c4ccccc4)CC3)ccn12` [Example 6] had a melting point of 161 °C. At human mGluR2 receptor, the “GTPγS - hR2 PAM pEC50” value was found to be 6.81.
`Fc1ccccc1C1CCN(Cc2ccn3c(CC(F)(F)F)cnc3c2Cl)CC1` [Example 41] returned a melting point of 161.1 °C. Besides, the EC50 at human mGluR2 receptor is 437 nM.
Taken in the same sequence, the figures for `CC(C)(O)c1ccccc1C1CCN(c2ccn3c(CC(F)(F)F)cnc3c2C#N)CC1` [Example 67, 7-{4-[2-(1-Hydroxy-1-methyl-ethyl)-phenyl]-piperidin-1-yl}-3-(2,2,2-trifluoro-ethyl)-imidazo[1,2-a]pyridine-8-carbonitrile] were 227.5 °C and 145 nM.
Turning to `Fc1ccccc1N1CCN(Cc2ccn3c(CC(F)(F)F)cnc3c2Cl)CC1` [Example 46], the melting point amounted to 150.2 °C. Besides, the EC50 on human mGluR2 receptor was 1740 nM.
Consider `N#Cc1c(CN2CCC(O)(c3ccc(F)cc3)CC2)ccn2c(CC(F)(F)F)cnc12` [Example 38], for which the melting point is 181.2 °C.
`N#Cc1c(N2CCC(c3ccccc3F)CC2)ccn2c(CC(F)(F)F)cnc12` [Example 31] yielded a melting point of 139.3 °C. Besides, at human mGluR2 receptor, the EC50 is 81.3 nM.
The compound `C[C@]1(O)CC[C@H](Nc2ccc(-c3ccn4c(CC(F)(F)F)cnc4c3Cl)cc2Cl)CC1` [Example 100, (trans)-4-{2-Chloro-4-[8-chloro-3-(2,2,2-trifluoro-ethyl)-imidazo[1,2-a]pyridin-7-yl]-phenylamino}-1-methyl-cyclohexanol] came in with a melting point of 205.1 °C. Besides, at human mGluR2 receptor, the EC50 is 126 nM.
On to `N#Cc1c(N2CCC(O)(c3ccccc3F)CC2)ccn2c(CC(F)(F)F)cnc12` [Example 62], for which the melting point was determined as 289.8 °C. The EC50 at human mGluR2 receptor was 166 nM.
`N#Cc1c(-c2ccc(Oc3ccccc3F)cc2)ccn2c(CC(F)(F)F)cnc12` [Example 77] displayed a melting point of 177.9 °C. The EC50 on human mGluR2 receptor was 105 nM.
Taken in the same sequence, the figures for `CCCc1cnc2c(C#N)c(N3CCC(c4cccc(C(F)(F)F)c4)CC3)ccn12` [Example 5] were 126.8 to 131 °C and 107 nM.
For `FC(F)(F)Cc1cnc2c(Cl)c(N3CCC(c4ccccc4)CC3)ccn12` [Example 51, 8-Chloro-7-(4-phenyl-piperidin-1-yl)-3-(2,2,2-trifluoro-ethyl)-imidazo[1,2-a]pyridine], the melting point was 263.1 °C. Also, the EC50 at human mGluR2 receptor was 158 nM.
Turning to `FC(F)(F)Cc1cnc2c(Cl)c(CN3CCN(c4ncccn4)CC3)ccn12` [Example 36, 8-Chloro-7-(4-pyrimidin-2-yl-piperazin-1-ylmethyl)-3-(2,2,2-trifluoro-ethyl)imidazo[1,2-a]pyridine], the melting point was found to be 161.4 °C.
With `FC(F)(F)Cc1cnc2c(Cl)c(CN3CCC4(CC3)OCc3ccccc34)ccn12` [Example 123], the melting point stood at 164.2 °C.
`CCCc1cnc2c(C#N)c(N3CCN(c4ncccn4)CC3)ccn12` [Example 22] registered a melting point of 176.4 °C.
The same measure, in the same setting: under `N#Cc1c(N2CCN(c3ccccc3)CC2)ccn2c(-c3ccccc3)cnc12` [Example 20] stands 220 °C; under `CCc1cnc2c(C#N)c(-c3ccc(Oc4ccnc(C)c4)c(F)c3)ccn12` [Example 25], 197.6 °C.
For the compound `CC(C)(C)c1ccc(-c2ccn3c(CC(F)(F)F)cnc3c2C#N)cc1` [Example 88], at human mGluR2 receptor, the “GTPγS - hR2 PAM pEC50” value amounted to 6.35.
`CC1(O)CCC(Nc2ccc(-c3ccn4c(CC(F)(F)F)cnc4c3Cl)cc2Cl)CC1` (stereo not shown) [Example 98, 4-{2-Chloro-4-[8-chloro-3-(2,2,2-trifluoro-ethyl)-imidazo[1,2-a]pyridin-7-yl]-phenylamino}-1-methyl-cyclohexanol]: the EC50 at human mGluR2 receptor is 490 nM.
As for `N#Cc1c(-c2ccc(Oc3ccccc3)c(F)c2)ccn2c(CC(F)(F)F)cnc12` [Example 76], on human mGluR2 receptor, the EC50 is 269 nM.
Consider `Fc1ccc(Oc2ccc(-c3ccn4c(CC(F)(F)F)cnc4c3Cl)cc2)cc1` [Example 70], for which the EC50 on human mGluR2 receptor was 269 nM.
`COc1cccc(C2(O)CCN(Cc3ccn4c(CC(F)(F)F)cnc4c3C#N)CC2)c1` [Example 43]: the melting point turned out to be 196 °C.
For the compound `N#Cc1c(CN2CCC(c3ccccc3)CC2)ccn2c(-c3ccccc3)cnc12` [Example 1, 3-Phenyl-7-(4-phenyl-piperidin-1-ylmethyl)-imidazo[1,2-a]pyridine-8-carbonitrile], the EC50 on human mGluR2 receptor is 513 nM.
